From US20230114728A1 (Venatorx Pharmaceuticals, Inc., priority 2019, published 2023)
Values after ≈ are worked out from the molar mass of the structure shown. Where two headings read alike, the source gives them in different places.

Columns and labels:
N. gonorrhoeae FA1090 = test: Liquid broth MIC in Fastidious broth; format: cell-based; details: Neisseria gonorrhoeae; N. gonorrhoeae strain FA1090; Fastidious broth; read-out: Minimum Inhibitory Concentration, N. gonorrhoeae FA1090
Procedure, shortened: (§1)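 Colonies were swabbed from chocolate agar after 24 h growth and standardised by optical density at 600 nm. Compounds were serially diluted twofold in Fastidious broth, and bacteria added to give 5×10^5 CFU/mL. After about 24 h at 36 °C in 5% CO2, the lowest concentration allowing under 10% growth was taken as MIC.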

N. gonorrhoeae WHO L = test: Liquid broth MIC in Fastidious broth; format: cell-based; details: Neisseria gonorrhoeae, read-out: Minimum Inhibitory Concentration, N. gonorrhoeae WHO L
Procedure, shortened: as §1

N. gonorrhoeae H041 = test: Liquid broth MIC in Fastidious broth; format: cell-based; details: Neisseria gonorrhoeae, H041, read-out: Minimum Inhibitory Concentration, N. gonorrhoeae H041
Procedure, shortened: (§2)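 Strains bearing mosaic PBP2 grown 24 h on chocolate agar (36° C, 5% CO2), suspended in saline and added to 2-fold compound dilutions in Fastidious broth at 5×10^5 CFU/mL. After ~24 hours at 36° C with 5% CO2, MIC taken visually as lowest well with <10% growth relative to full growth.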

[1] = tested on: N. gonorrhoeae ATCC 49226; test: Liquid broth MIC in Fastidious broth; format: cell-based; details: Neisseria gonorrhoeae, ATCC49226; N. gonorrhoeae strain ATCC 49226; Fastidious broth; read-out: Minimum Inhibitory Concentration, N. gonorrhoeae ATCC 49226
Procedure, shortened: as §1

N. gonorrhoeae WHO K = test: Liquid broth MIC in Fastidious broth; format: cell-based; details: Neisseria gonorrhoeae, read-out: Minimum Inhibitory Concentration, N. gonorrhoeae WHO K
Procedure, shortened: as §2

N. gonorrhoeae WHO G = test: Liquid broth MIC in Fastidious broth; format: cell-based; details: Neisseria gonorrhoeae, read-out: Minimum Inhibitory Concentration, N. gonorrhoeae WHO G
Procedure, shortened: as §1

E. coli K12 PBP3 = target: T1, E. coli K12 PBP3 (Escherichia coli, UniProt P0AD68); test: biochemical; format: binding
T1 construct: made in house
Procedure, shortened: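 A. baumannii PBP2 (2.5 μM) and PBP3 (0.2 μM) were run in 25 mM Tris pH 8.0 buffer with Tween 20; E. coli PBP3 (1.5 μM) and N. gonorrhoeae PBP2 ([…]) in 50 mM Hepes pH 8.0 buffer.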

[2] = N. gonorrhoeae strain WHO L, Fastidious broth
[3] = N. gonorrhoeae strain WHO G, Fastidious broth

T1 sequence (P0AD68 1-577): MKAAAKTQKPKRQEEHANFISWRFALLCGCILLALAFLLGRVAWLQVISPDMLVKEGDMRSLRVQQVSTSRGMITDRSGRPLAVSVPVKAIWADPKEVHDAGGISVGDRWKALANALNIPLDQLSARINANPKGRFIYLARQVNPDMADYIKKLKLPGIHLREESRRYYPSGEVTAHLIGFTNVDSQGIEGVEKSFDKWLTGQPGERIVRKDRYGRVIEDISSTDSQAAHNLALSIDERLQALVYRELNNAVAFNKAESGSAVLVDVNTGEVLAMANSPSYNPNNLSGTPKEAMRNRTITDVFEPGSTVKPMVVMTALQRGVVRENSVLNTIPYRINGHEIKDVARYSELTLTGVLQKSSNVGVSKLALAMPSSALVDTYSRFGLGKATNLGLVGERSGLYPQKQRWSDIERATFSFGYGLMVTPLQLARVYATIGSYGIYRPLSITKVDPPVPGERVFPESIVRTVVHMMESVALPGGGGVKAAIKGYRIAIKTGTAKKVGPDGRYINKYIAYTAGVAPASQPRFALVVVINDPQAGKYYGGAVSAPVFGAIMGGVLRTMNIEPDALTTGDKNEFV

Row | Structure (SMILES) | MIC (N. gonorrhoeae FA1090) [µg/mL] | MIC (N. gonorrhoeae WHO L; [2]) [µg/mL] | MIC (N. gonorrhoeae H041) [µg/mL] | MIC [1] [µg/mL] | MIC (N. gonorrhoeae WHO K) [µg/mL] | MIC (N. gonorrhoeae WHO G; [3]) [µg/mL] | EC50 (E. coli K12 PBP3) [µM] | MIC (N. gonorrhoeae WHO L) [µg/mL] | MIC (N. gonorrhoeae WHO G) [µg/mL]
1 | CCN1CCN(C(=O)NC(C(=O)N[C@H]2Cc3ccc(F)c(C(=O)O)c3OB2O)c2c(F)cc(O)c(O)c2F)C(=O)C1=O (stereo partly drawn) [Example 36, (3R)-3-(2-(2,6-difluoro-3,4-dihydroxyphenyl)-2-(4-ethyl-2,3-dioxopiperazine-1-carboxamido)acetamido)-7-fluoro-2-hydroxy-3,4-dihydro-2H-benzo[e][1,2]oxaborinine-8-carboxylic acid] | 4 to 8 (≈ 6.73 to 13.5 µM) | > 64 | 16 to 32 (≈ 26.9 to 53.8 µM) | 16 to 32 (≈ 26.9 to 53.8 µM) | 16 to 32 (≈ 26.9 to 53.8 µM) | 16 to 32 (≈ 26.9 to 53.8 µM) | < 30 |  | 
2 | O=C(O)c1c(F)ccc2c1OB(O)[C@@H](NC(=O)C(NC(=O)N1CCN(CCF)C(=O)C1=O)c1c(F)cc(O)c(O)c1F)C2 (stereo partly drawn) [Example 37, (3R)-3-(2-(2,6-difluoro-3,4-dihydroxyphenyl)-2-(4-(2-fluoroethyl)-2,3-dioxopiperazine-1-carboxamido)acetamido)-7-fluoro-2-hydroxy-3,4-dihydro-2H-benzo[e][1,2]oxaborinine-8-carboxylic acid] | 4 to 8 (≈ 6.53 to 13.1 µM) | > 64 | 16 to 32 (≈ 26.1 to 52.3 µM) | 16 to 32 (≈ 26.1 to 52.3 µM) | 16 to 32 (≈ 26.1 to 52.3 µM) | 16 to 32 (≈ 26.1 to 52.3 µM) | < 30 |  | 
3 | O=C(O)c1c(F)ccc2c1OB(O)[C@@H](NC(=O)C(NC(=O)N1CCN(CCBr)C(=O)C1=O)c1c(F)cc(O)c(O)c1F)C2 (stereo partly drawn) [Example 38, (3R)-3-(2-(4-(2-bromoethyl)-2,3-dioxopiperazine-1-carboxamido)-2-(2,6-difluoro-3,4-dihydroxyphenyl)acetamido)-7-fluoro-2-hydroxy-3,4-dihydro-2H-benzo[e][1,2]oxaborinine-8-carboxylic acid] | 4 to 8 (≈ 5.94 to 11.9 µM) |  | > 64 | 16 to 32 (≈ 23.8 to 47.5 µM) | > 64 |  | < 30 | > 64 | 16 to 32 (≈ 23.8 to 47.5 µM)
4 | NCCCN1CCN(C(=O)NC(C(=O)N[C@H]2Cc3cccc(C(=O)O)c3OB2O)c2ccc(C(=O)O)cc2)C(=O)C1=O (stereo partly drawn) [Example 39, (3R)-3-(2-(4-(3-aminopropyl)-2,3-dioxopiperazine-1-carboxamido)-2-(4-carboxyphenyl)acetamido)-2-hydroxy-3,4-dihydro-2H-benzo[e][1,2]oxaborinine-8-carboxylic acid] | 1 to 2 (≈ 1.72 to 3.44 µM) | 16 to 32 (≈ 27.5 to 55 µM) | > 64 | 4 to 8 (≈ 6.88 to 13.8 µM) | > 64 | 4 to 8 (≈ 6.88 to 13.8 µM) | < 30 |  | 
5 | CCN1CCN(C(=O)NC(C(=O)N[C@H]2Cc3ccc(F)c(C(=O)O)c3OB2O)c2cc(F)c(O)c(O)c2Cl)C(=O)C1=O (stereo partly drawn) [Example 42, (3R)-3-(2-(2-chloro-5-fluoro-3,4-dihydroxyphenyl)-2-(4-ethyl-2,3-dioxopiperazine-1-carboxamido)acetamido)-7-fluoro-2-hydroxy-3,4-dihydro-2H-benzo[e][1,2]oxaborinine-8-carboxylic acid] | 4 to 8 (≈ 6.55 to 13.1 µM) | > 64 | 16 to 32 (≈ 26.2 to 52.4 µM) | 16 to 32 (≈ 26.2 to 52.4 µM) | 16 to 32 (≈ 26.2 to 52.4 µM) | 16 to 32 (≈ 26.2 to 52.4 µM) | < 30 |  | 
6 | NS(=O)(=O)NC(C(=O)N[C@H]1Cc2ccc(F)c(C(=O)O)c2OB1O)c1ncc(O)cc1F (stereo partly drawn) [Example 43, (3R)-7-fluoro-3-(2-(3-fluoro-5-hydroxypyridin-2-yl)-2-(sulfamoylamino)acetamido)-2-hydroxy-3,4-dihydro-2H-benzo[e][1,2]oxaborinine-8-carboxylic acid] | > 64 | > 64 | > 64 | > 64 | > 64 | > 64 | > 500 |  | 
7 | NS(=O)(=O)NC(C(=O)N[C@H]1Cc2cccc(C(=O)O)c2OB1O)c1ccc(C(=O)O)c(F)c1 (stereo partly drawn) [Example 44, (3R)-3-(2-(4-carboxy-3-fluorophenyl)-2-(sulfamoylamino)acetamido)-2-hydroxy-3,4-dihydro-2H-benzo[e][1,2]oxaborinine-8-carboxylic acid] | > 64 | > 64 | > 64 | > 64 | > 64 | > 64 | > 500 |  | 
8 | CCN1CCN(C(=O)NC(C(=O)N[C@H]2Cc3cccc(C(=O)O)c3OB2O)c2ccc(C(N)=O)c(O)c2)C(=O)C1=O (stereo partly drawn) [Example 45, (3R)-3-(2-(4-carbamoyl-3-hydroxyphenyl)-2-(4-ethyl-2,3-dioxopiperazine-1-carboxamido)acetamido)-2-hydroxy-3,4-dihydro-2H-benzo[e][1,2]oxaborinine-8-carboxylic acid] | < 0.125 | 16 to 32 (≈ 28.2 to 56.4 µM) | 16 to 32 (≈ 28.2 to 56.4 µM) | 1 to 2 (≈ 1.76 to 3.53 µM) | 16 to 32 (≈ 28.2 to 56.4 µM) | 0.25 to 0.5 (≈ 0.441 to 0.881 µM) | < 30 |  | 
